From patent publication US12660819B2, “Herbicidal derivatives” (SYNGENTA CROP PROTECTION AG, priority 2020, dated 2026)

Legend:
Type in all cases: in vivo
[1] = test system: Echinochloa crus-galli (ECHCG); experiment: Pre-emergence Test (glasshouse, percentage damage to the plant); conditions: 1000 g/ha unless otherwise stated; for percentage damage to the plant, ECHCG: five-point scale
Zea mays (ZEAMX) [2] = experiment: as above; conditions: 1000 g/ha unless otherwise stated; for percentage damage to the plant, ZEAMX: five-point scale
[3] = test system: Amaranthus retoflexus (AMARE); experiment: Post-emergence Test (glasshouse, percentage damage to the plant); conditions: 1000 g/ha unless otherwise stated, evaluated after 13 days; for Post-emergence Test AMARE, percentage damage to the plant (five-point scale): post-emergence spray
Experimental: (§1) Seeds of a variety of test species are sown in standard soil in pots (Amaranthus retoflexus (AMARE), Solanum nigrum (SOLNI), Setaria faberi (SETFA), Lolium perenne (LOLPE), Echinochloa crus-galli (ECHCG), Ipomoea hederacea (IPOHE), Abutilon theophrasti (ABUTH), Zea mays (ZEAMX), Amaranthus palmeri (AMAPA). After 8 days cultivation under controlled conditions in a glasshouse (at 24° C./16° C., day/night; 14 hours light; 65% humidity), the plants are sprayed with an aqueous spray solution derived from the formulation of the technical active ingredient in acetone/water (50:50) solution containing 0.5% Tween 20 (polyoxyethelyene sorbitan monolaurate, CAS RN 9005-64-5). Compounds are applied at 1000 g/ha unless otherwise stated. The test plants are then grown in a glasshouse under controlled conditions in a glasshouse (at 24° C./16° C., day/night; 14 hours light; 65% humidity) and watered twice daily. After 13 days the test is evaluated for the percentage damage caused to the plant. The biological activities are shown in the following table on a five-point scale (5=81-100%; 4=61-80%; 3=41-60%; 2=21-40%; 1=0-20%).

[4] = test system: Ipomoea hederacea (IPOHE); experiment: as above; conditions: 1000 g/ha unless otherwise stated, evaluated after 13 days; for Post-emergence Test IPOHE, percentage damage to the plant (five-point scale): post-emergence spray
Experimental: as §1

Zea mays (ZEAMX) [5] = experiment: as above; conditions: 1000 g/ha unless otherwise stated, evaluated after 13 days; for Post-emergence Test ZEAMX, percentage damage to the plant (five-point scale): post-emergence spray
Experimental: as §1

Setaria faberi (SETFA) [6] = experiment: as above; conditions: 1000 g/ha unless otherwise stated, evaluated after 13 days; for Post-emergence Test SETFA, percentage damage to the plant (five-point scale): post-emergence spray
Experimental: as §1

Setaria faberi (SETFA) [7] = experiment: Pre-emergence Test (glasshouse, percentage damage to the plant); conditions: 1000 g/ha unless otherwise stated; for percentage damage to the plant, SETFA: five-point scale
[8] = test system: Ipomoea hederacea (IPOHE); experiment: as above; conditions: 1000 g/ha unless otherwise stated; for percentage damage to the plant, IPOHE: five-point scale
[9] = test system: Abutilon theophrasti (ABUTH); experiment: as above; conditions: 1000 g/ha unless otherwise stated; for percentage damage to the plant, ABUTH: five-point scale
[10] = test system: Amaranthus retoflexus (AMARE); experiment: as above; conditions: 1000 g/ha unless otherwise stated; for percentage damage to the plant, AMARE: five-point scale

| SMILES | percentage damage to the plant, ECHCG (five-point scale) ([1]; Echinochloa crus-galli) | percentage damage to the plant, ZEAMX (five-point scale) (Zea mays (ZEAMX) [2]; Zea mays) | AMARE, percentage damage caused to the plant (five-point scale) ([3]; post-emergence) | IPOHE, percentage damage caused to the plant (five-point scale) ([4]; post-emergence) | ZEAMX, percentage damage caused to the plant (five-point scale) (Zea mays (ZEAMX) [5]; post-emergence) | SETFA, percentage damage caused to the plant (five-point scale) (Setaria faberi (SETFA) [6]; post-emergence) | percentage damage to the plant, SETFA (five-point scale) (Setaria faberi (SETFA) [7]; Setaria faberi) | percentage damage to the plant, IPOHE (five-point scale) ([8]; Ipomoea hederacea) | percentage damage to the plant, ABUTH (five-point scale) ([9]; Abutilon theophrasti) | percentage damage to the plant, AMARE (five-point scale) ([10]; Amaranthus retoflexus) | percentage damage to the plant, ECHCG [1] | percentage damage to the plant, ZEAMX (Zea mays (ZEAMX) [2]) | Post-emergence Test AMARE, percentage damage to the plant (five-point scale) [3] | Post-emergence Test IPOHE, percentage damage to the plant (five-point scale) [4] | Post-emergence Test ZEAMX, percentage damage to the plant (five-point scale) (Zea mays (ZEAMX) [5]) | Post-emergence Test SETFA, percentage damage to the plant (five-point scale) (Setaria faberi (SETFA) [6]) | percentage damage to the plant, SETFA (Setaria faberi (SETFA) [7]) | percentage damage to the plant, IPOHE [8] | percentage damage to the plant, ABUTH [9] | percentage damage to the plant, AMARE [10] |
| --- | --- | --- | --- | --- | --- | --- | --- | --- | --- | --- | --- | --- | --- | --- | --- | --- | --- | --- | --- | --- |
| CCn1c(C)c(-c2cc(F)c(F)c(F)c2)c(=O)c(C(=O)O)c1-c1ccc(Cl)cc1 [Compound 200, 2-(4-chlorophenyl)-1-ethyl-6-methyl-4-oxo-5-(3,4,5-trifluorophenyl)pyridine-3-carboxylic acid] | 3 (3=41-60%) | 0 | 1 (1=0-20%) | 3 (3=41-60%) | 2 (2=21-40%) | 3 (3=41-60%) | 2 (2=21-40%) | 2 (2=21-40%) | 3 (3=41-60%) | 0 | – | – | – | – | – | – | – | – | – | – |
| CCn1c(C)c(-c2ccc(C#N)c(C(F)(F)F)c2)c(=O)c(C(=O)O)c1-c1ccc(Cl)cc1 [Compound 187, 2-(4-chlorophenyl)-5-[4-cyano-3-(trifluoromethyl)phenyl]-1-ethyl-6-methyl-4-oxo-pyridine-3-carboxylic acid] | – | – | – | – | – | – | – | – | – | – | 1 (1=0-20%) | 1 (1=0-20%) | 3 (3=41-60%) | 3 (3=41-60%) | 2 (2=21-40%) | 2 (2=21-40%) | 2 (2=21-40%) | 2 (2=21-40%) | 3 (3=41-60%) | 1 (1=0-20%) |
| CCn1c(C)c(-c2ccc(Cl)c(C#N)c2)c(=O)c(C(=O)O)c1-c1ccc(Cl)cc1 [Compound 196, 5-(4-chloro-3-cyano-phenyl)-2-(4-chlorophenyl)-1-ethyl-6-methyl-4-oxo-pyridine-3-carboxylic acid] | – | – | – | – | – | – | – | – | – | – | 2 (2=21-40%) | 0 | 3 (3=41-60%) | 3 (3=41-60%) | 2 (2=21-40%) | 3 (3=41-60%) | 1 (1=0-20%) | 1 (1=0-20%) | 0 | 1 (1=0-20%) |
| CCn1c(C)c(-c2ccc([N+](=O)[O-])cc2)c(=O)c(C(=O)O)c1-c1ccc(Cl)cc1 [Compound 194, 2-(4-chlorophenyl)-1-ethyl-6-methyl-5-(4-nitrophenyl)-4-oxo-pyridine-3-carboxylic acid] | – | – | – | – | – | – | – | – | – | – | 0 | 2 (2=21-40%) | 0 | 0 | 1 (1=0-20%) | 2 (2=21-40%) | 0 | 0 | 0 | 0 |
| CCn1c(C)c(-c2cccc(Cl)c2Cl)c(=O)c(C(=O)O)c1-c1ccc(Cl)cc1 [Compound 172, 2-(4-chlorophenyl)-5-(2,3-dichlorophenyl)-1-ethyl-6-methyl-4-oxo-pyridine-3-carboxylic acid] | – | – | – | – | – | – | – | – | – | – | 3 (3=41-60%) | 0 | 2 (2=21-40%) | 4 (4=61-80%) | 2 (2=21-40%) | 4 (4=61-80%) | 3 (3=41-60%) | 1 (1=0-20%) | 1 (1=0-20%) | 1 (1=0-20%) |
| CCn1c(C)c(-c2ccc(Cl)cc2Cl)c(=O)c(C(=O)O)c1-c1ccc(Cl)cc1 [Compound 193, 2-(4-chlorophenyl)-5-(2,4-dichlorophenyl)-1-ethyl-6-methyl-4-oxo-pyridine-3-carboxylic acid] | – | – | – | – | – | – | – | – | – | – | 1 (1=0-20%) | 1 (1=0-20%) | 5 (5=81-100%) | 3 (3=41-60%) | 2 (2=21-40%) | 4 (4=61-80%) | 2 (2=21-40%) | 0 | 2 (2=21-40%) | 2 (2=21-40%) |
| CCn1c(C)c(-c2ccc(F)cc2OC)c(=O)c(C(=O)O)c1-c1ccc(Cl)cc1 [Compound 186, 2-(4-chlorophenyl)-1-ethyl-5-(4-fluoro-2-methoxy-phenyl)-6-methyl-4-oxo-pyridine-3-carboxylic acid] | – | – | – | – | – | – | – | – | – | – | 1 (1=0-20%) | 0 | 1 (1=0-20%) | 2 (2=21-40%) | 2 (2=21-40%) | 3 (3=41-60%) | 2 (2=21-40%) | 1 (1=0-20%) | 3 (3=41-60%) | 1 (1=0-20%) |
| CCn1c(C)c(-c2cc(F)cc(C#N)c2)c(=O)c(C(=O)O)c1-c1ccc(Cl)cc1 [Compound 190, 2-(4-chlorophenyl)-5-(3-cyano-5-fluoro-phenyl)-1-ethyl-6-methyl-4-oxo-pyridine-3-carboxylic acid] | – | – | – | – | – | – | – | – | – | – | 2 (2=21-40%) | 2 (2=21-40%) | 1 (1=0-20%) | 1 (1=0-20%) | 1 (1=0-20%) | 2 (2=21-40%) | 2 (2=21-40%) | 1 (1=0-20%) | 0 | 1 (1=0-20%) |
| CCn1c(C)c(-c2cccc(C(F)(F)F)c2)c(=O)c(C(=O)O)c1-c1ccnc(Cl)c1 [Compound 145, 2-(2-chloro-4-pyridyl)-1-ethyl-6-methyl-4-oxo-5-[3-(trifluoromethyl)phenyl] pyridine-3-carboxylic acid] | – | – | – | – | – | – | – | – | – | – | 2 (2=21-40%) | 0 | 1 (1=0-20%) | 2 (2=21-40%) | 1 (1=0-20%) | 3 (3=41-60%) | 3 (3=41-60%) | 0 | 1 (1=0-20%) | 1 (1=0-20%) |
| CCn1c(C)c(-c2ccc(C(F)(F)F)c(Cl)c2)c(=O)c(C(=O)O)c1-c1ccc(Cl)cc1 [Compound 171, 2-(4-chlorophenyl)-5-[3-chloro-4-(trifluoromethyl)phenyl]-1-ethyl-6-methyl-4-oxo-pyridine-3-carboxylic acid] | – | – | – | – | – | – | – | – | – | – | 1 (1=0-20%) | 0 | 3 (3=41-60%) | 4 (4=61-80%) | 2 (2=21-40%) | 3 (3=41-60%) | 0 | 1 (1=0-20%) | 0 | 0 |
